Source: patent US20140073634A1 (Institute For Applied Cancer Science/The University of …, priority 2012, published 2014)

What was measured:
293T-HRE-GFP-luc cells = assay: Cell-based reporter assay for IC50 determinations (HRE-luciferase, hypoxia); conditions: 6 hrs hypoxia (1% O2), luminescence
Method in brief: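 IC50s come from four-parameter logistic fits of luminescence. Compounds in 1:3 DMSO series were added to 293T-HRE-GFP-luc cells, 30 min normoxia preceding 6 hrs at 1% O2, 37° C; HRE-luciferase signal was then measured with Steadylite Plus reagent.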

TMD8 cells = assay: Diffuse large B-cell lymphoma (DLBCL) assay, viable cells by Guava ViaCount; format: cell-based; conditions: varying concentrations, 7 days
Protocol: Diffuse Large B-Cell Lymphoma (DLBCL) Assay
Equal number of TMD8 cells were plated and treated with varying concentrations of the compound of Example 7 for 7 days. Percent of viable cells was determined using Guava ViaCount reagents (EMD Millipore cat #4000-0040) that contains proprietary dyes that enable the determination of the number of live and dead cells in a sample (FIG. 1).

OCI-AML3 cell line = assay: Acute myeloid leukemia cell line viability; format: cell-based, human; conditions: OCI-AML3, various concentrations, 7 days
Protocol: (§1) The OCI-AML3 cell line was treated with various concentrations of the compound of Example 7 for 7 days and the percent of viable cells normalized to control cells treated with DMSO (FIG. 8). CD45+ primary AML cells from an AML patient or CD45+ normal bone marrow cells from a healthy volunteer were treated with the compound of Example 7 for 4 days and the number of viable cells and percentage of apoptotic (annexin V) were determined (FIGS. 9a and 9b). […] OCI-AML3 cells constitutively expressing luciferase were tail vein injected in NSG nude mice. 17 days after cell injection, luciferin was injected into animals and luciferase signal was measured using an IVIS imaging system to determine tumor burden and for randomization of subjects into study groups. On day 18, animals began receiving daily oral doses of vehicle or 60 mpk of the compound of Example 7 were started and continued throughout the study. On day 28, imaging was performed again to determine tumor burden (FIG. 10).

[1] = tested on: CD45+ primary AML cells from an AML patient; assay: Primary AML cells, viable cells and annexin V; format: cell-based, human; conditions: 4 days
Protocol: as §1

[2] = tested on: CD45+ normal bone marrow cells from a healthy volunteer; assay: Normal bone marrow cells, viable cells and annexin V; format: cell-based, human; conditions: 4 days
Protocol: as §1

[3] = tested on: OCI-AML3 cells constitutively expressing luciferase; assay: OCI-AML3 leukemia model in NSG mice (IVIS imaging, survival); format: in vivo, NSG nude mice
Protocol: as §1

NB-1 cells = assay: Neuroblastoma cellular assay; format: cell-based; conditions: NB-1, various concentrations
Excerpt: (§2) NB-1, Gli56, and D423 cell lines are deleted for ENO-1 (GLI56 and D423) or PGD, which renders them with reduced glycolytic capacity (Muller, F. et al., Nature, 2012, 488, 337-42).

Gli56 cells = assay: Glioblastoma cellular assay; format: cell-based; conditions: Gli56, various concentrations
Excerpt: as §2

D423 cells = assay: Cellular assay in ENO-1 deleted D423 cells; format: cell-based; conditions: D423, various concentrations
Excerpt: as §2

NB-1 xenografts = assay: NB-1 xenograft model; format: in vivo, CD-1 nude mice; conditions: 40 mg/kg daily oral
Excerpt: To establish activity and provide in vivo proof of concept, NB-1 cells were implanted into CD-1 nude mice and treated with vehicle or 40 mpk of the compound of Example 7 po daily hen tumors reached 400-500 mm^3. Tumor size was measure 3×/week using caliper measurements (FIG. 4).

H460 xenografts = assay: H460 non-small cell lung cancer xenograft; format: in vivo, CD-1 nude mice
Protocol: Non-Small Cell Lung Cancer: H460 cells were implanted subcutaneously in CD-1 nude mice and treated with the compound of Example 7 (40 mpk qdx 14) delivered by oral gavage for 14 days. Animals were randomized into study groups and the study initiated when the average tumor volume was 400 mm^3. During treatment, tumor volume was measured three times per week to determine tumor growth over the course of the study (FIG. 5). Nine tumor bearing mice were included in each group. On day 15, 3 hours prior to take down, hypoxyprobe (Hypoxyprobe, Inc. cat #HP3) was injected into mice. Tumor sections were stained (dark areas) for the level of hypoxia utilizing an anti-hypoxyprobe antibody and standard IHC methods (FIG. 6). The same tumors were stained for the expression of HIF regulated gene carbonic anhydrase IX (CA9) using standard IHC methods (FIG. 7).

HN5 xenograft = assay: HN5 head and neck xenograft with fractionated irradiation; format: in vivo, CD-1 nude mice; conditions: 60 mg/kg daily oral and/or 4 Gy irradiation for 5 days
Protocol: HN5 head and neck cells were injected intramuscularly into CD-1 nude mice. Upon tumors reaching 8.5 mm in diameter, animals were enrolled in the study and received either vehicle or the compound of Example 7 (days 0-5) with or without a 4 Gy dose 6 hours after the compound of Example 7 on days 1-5 of the study (FIG. 12). Tumor size was measured every other day to determine the rate of growth (FIG. 13).

CN1CCN(c2cc(Cn3cc(-c4nc(-c5ccc(OC(F)(F)F)cc5)no4)ccc3=O)ccn2)CC1 [Example 7, 1-methyl-4-(4-((2-oxo-5-(3-(4-(trifluoromethoxy)phenyl)-1,2,4-oxadiazol-5-yl)pyridin-1(2H)-yl)methyl)pyridin-1-ium-2-yl)piperazin-1-ium bis-trifluoroacetate]
IC50 (293T-HRE-GFP-luc cells): < 100 nM | Percent of viable cells (TMD8 cells): respond robustly | percent of viable cells normalized to DMSO control (OCI-AML3 cell line): reduced number of viable cells | number of viable cells [1]: significant decrease | percentage of apoptotic (annexin V) cells [1]: significant increase | response (viable cells, annexin V) [2]: minimal response | disease burden (IVIS imaging) ([3]; 60 mg/kg daily oral, NSG mice): reduces disease burden | survival ([3]; 60 mpk daily oral, relative to vehicle): significantly increased their survival | cell death (NB-1 cells): cell death readily apparent | cell number (NB-1 cells): significantly reduced | cell death (Gli56 cells): cell death readily apparent | cell number (Gli56 cells): significantly reduced | cell number (D423 cells): significantly reduced | tumor growth (NB-1 xenografts): reduces the tumor growth | tumor growth (H460 xenografts; 40 mpk qdx14 oral gavage): inhibited the growth of the H460 xenografts | carbonic anhydrase IX (CA9) protein expression in tumor (IHC) (H460 xenografts; 40 mpk qdx14 oral, day 15): elimination of hypoxia and CA9 protein expression | level of hypoxia in tumor (hypoxyprobe IHC) (H460 xenografts; 40 mpk qdx14 oral, day 15): elimination of hypoxia | tumor diameter, combination with irradiation (HN5 xenograft): enhance fractionated irradidation
